# Measurements: patent US8614205B2, “Glutamate receptor modulators and therapeutic agents” (priority 2009, dated 2013)
# pEC50: −log10 of the molar value. Values joined by “and” are separate entries in the source; they are usually repeats but may differ in a detail not shown here. Equal values may be shown once.
# Legend:
# mGluR5 = target: T1, mGluR5 (Homo sapiens, UniProt P41594); experiment: aequorin calcium assay, negative allosteric modulation of mGluR5; assay type: cell-based; details: aequorin assay, agonist at EC80; 10000 = no activity observed at 10,000 nM; read-out: mGluR5 EC50
# T1 construct: expression induced with doxycycline
# T1 sequence (P41594 21-1212): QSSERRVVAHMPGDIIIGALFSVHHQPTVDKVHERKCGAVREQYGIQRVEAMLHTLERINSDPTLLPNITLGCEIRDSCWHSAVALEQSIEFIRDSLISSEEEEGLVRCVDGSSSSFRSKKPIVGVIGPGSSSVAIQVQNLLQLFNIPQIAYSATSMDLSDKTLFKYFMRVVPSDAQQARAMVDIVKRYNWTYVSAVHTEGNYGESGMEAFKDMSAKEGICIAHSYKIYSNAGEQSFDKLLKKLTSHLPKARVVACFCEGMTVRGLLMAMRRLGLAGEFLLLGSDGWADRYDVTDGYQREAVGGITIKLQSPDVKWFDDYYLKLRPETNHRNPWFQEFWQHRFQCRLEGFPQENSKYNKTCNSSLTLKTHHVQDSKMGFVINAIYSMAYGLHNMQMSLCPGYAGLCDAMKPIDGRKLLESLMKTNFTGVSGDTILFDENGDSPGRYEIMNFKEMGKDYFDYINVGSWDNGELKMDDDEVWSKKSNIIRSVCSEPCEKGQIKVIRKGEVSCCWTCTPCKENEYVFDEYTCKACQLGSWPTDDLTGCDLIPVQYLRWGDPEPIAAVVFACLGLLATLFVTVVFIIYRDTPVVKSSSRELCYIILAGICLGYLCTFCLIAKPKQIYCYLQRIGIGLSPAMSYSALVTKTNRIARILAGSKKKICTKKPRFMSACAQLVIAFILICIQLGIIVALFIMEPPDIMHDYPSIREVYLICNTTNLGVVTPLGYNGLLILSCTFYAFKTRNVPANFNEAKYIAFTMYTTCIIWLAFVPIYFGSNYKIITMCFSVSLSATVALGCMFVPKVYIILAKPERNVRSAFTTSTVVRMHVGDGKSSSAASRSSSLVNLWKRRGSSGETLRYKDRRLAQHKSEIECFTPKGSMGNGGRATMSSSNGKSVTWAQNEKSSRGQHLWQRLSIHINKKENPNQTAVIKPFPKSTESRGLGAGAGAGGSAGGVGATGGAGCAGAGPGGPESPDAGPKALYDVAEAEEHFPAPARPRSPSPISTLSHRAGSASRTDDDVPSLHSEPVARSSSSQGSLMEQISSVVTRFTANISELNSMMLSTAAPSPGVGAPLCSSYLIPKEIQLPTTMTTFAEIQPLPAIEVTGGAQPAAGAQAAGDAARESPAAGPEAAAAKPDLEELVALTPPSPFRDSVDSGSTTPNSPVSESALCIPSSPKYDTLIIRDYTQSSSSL
# Method: (§1) The ability of test compound to ameliorate the efflux of calcium cations (Ca^++) in the presence of agonist (glutamate or quisqualate) is measured by detection of light emitted by the luminescent protein aequorin triggered by binding of Ca^++. Aequorin is a photoprotein isolated from luminescent jellyfish (like various Aequorea species e.g. Aequorea victoria). Aequorin is composed of two distinct units, the apoprotein apoaequorin, with an approximate molecular weight of 22 kDa, and the prosthetic group, coelenterazine, responsible for emission of light. In the presence of molecular oxygen the two components of aequorin assemble spontaneously, forming the functional protein. Four EF-hand type regions have been identified in the structure of Aequorin and at least 3 of them function as binding sites for Ca+2 ions: Ca+2 binding to these EF hands triggers a conformational change of the protein, that leads it to oxidize its prosthetic group, coelenterazine, into excited coelenteramide and CO2. As the excited coelenteramide relaxes to the ground state, blue light (wavelength=469 nm) is emitted and can be measured by a luminometer. Negative allosteric modulator activity of test compound is expressed as a percentage of the stimulation of reference agonist (glutamate) activity at its EC80 concentration. Assay of Compounds was performed at Euroscreen SA, Gosselies, Belgium.
# (§2) Cells stably transfected with mGlu1 or mGlu5 were grown 18 hours prior to the test in culture medium containing 600 ng/ml doxycycline, then were detached by gentle flushing with PBS-EDTA, recovered by centrifugation and resuspended in “assay buffer” (HBSS, 2.1 mM CaCl2, 3 μg/ml GPT (Glutamate-Pyruvate transaminase), 4 mM MEM Sodium Pyruvate, 0.1% BSA, protease free). Cells were incubated at room temperature for at least 4 h with coelenterazine-h. Dose response curves were performed using mGluR1 cells with the orthosteric agonist glutamate and negative allosteric modulator JNJ16259685. Dose response curves were performed using mGluR5 cells with the orthosteric agonist glutamate and negative allosteric modulator MPEP. For agonist testing, 30 μl of cell suspension were mixed with 30 μl of test compound or reference agonist in a 384-well plate. The resulting emission of light was recorded using the Hamamatsu Functional Drug Screening System 6000 (FDSS 6000). For negative allosteric modulator testing, 60 μl of the resulting cell suspension containing the test compound was mixed with 30 μl of the reference agonist at EC80 following an incubation of 3 min after the first injection. The resulting emission of light was recorded using FDSS 6000. […] Plates also contained the reference agonist at a concentration equivalent to the EC80 obtained during the test validation. Negative allosteric modulator activity of test compound was expressed as a percentage of the stimulation of reference agonist activity at its EC80 concentration.
# mGluR1 = target: T2, mGluR1 (Homo sapiens, UniProt Q13255); experiment: aequorin calcium assay, negative allosteric modulation of mGluR1; assay type: cell-based; details: for mGluR1/mGluR5 Ratio: EC50 for mGluR1 divided by EC50 for mGluR5; for pEC50: aequorin assay, agonist at EC80, 10000 = no activity observed at 10,000 nM
# T2 construct: expression induced with doxycycline
# T2 sequence (Q13255 19-1194): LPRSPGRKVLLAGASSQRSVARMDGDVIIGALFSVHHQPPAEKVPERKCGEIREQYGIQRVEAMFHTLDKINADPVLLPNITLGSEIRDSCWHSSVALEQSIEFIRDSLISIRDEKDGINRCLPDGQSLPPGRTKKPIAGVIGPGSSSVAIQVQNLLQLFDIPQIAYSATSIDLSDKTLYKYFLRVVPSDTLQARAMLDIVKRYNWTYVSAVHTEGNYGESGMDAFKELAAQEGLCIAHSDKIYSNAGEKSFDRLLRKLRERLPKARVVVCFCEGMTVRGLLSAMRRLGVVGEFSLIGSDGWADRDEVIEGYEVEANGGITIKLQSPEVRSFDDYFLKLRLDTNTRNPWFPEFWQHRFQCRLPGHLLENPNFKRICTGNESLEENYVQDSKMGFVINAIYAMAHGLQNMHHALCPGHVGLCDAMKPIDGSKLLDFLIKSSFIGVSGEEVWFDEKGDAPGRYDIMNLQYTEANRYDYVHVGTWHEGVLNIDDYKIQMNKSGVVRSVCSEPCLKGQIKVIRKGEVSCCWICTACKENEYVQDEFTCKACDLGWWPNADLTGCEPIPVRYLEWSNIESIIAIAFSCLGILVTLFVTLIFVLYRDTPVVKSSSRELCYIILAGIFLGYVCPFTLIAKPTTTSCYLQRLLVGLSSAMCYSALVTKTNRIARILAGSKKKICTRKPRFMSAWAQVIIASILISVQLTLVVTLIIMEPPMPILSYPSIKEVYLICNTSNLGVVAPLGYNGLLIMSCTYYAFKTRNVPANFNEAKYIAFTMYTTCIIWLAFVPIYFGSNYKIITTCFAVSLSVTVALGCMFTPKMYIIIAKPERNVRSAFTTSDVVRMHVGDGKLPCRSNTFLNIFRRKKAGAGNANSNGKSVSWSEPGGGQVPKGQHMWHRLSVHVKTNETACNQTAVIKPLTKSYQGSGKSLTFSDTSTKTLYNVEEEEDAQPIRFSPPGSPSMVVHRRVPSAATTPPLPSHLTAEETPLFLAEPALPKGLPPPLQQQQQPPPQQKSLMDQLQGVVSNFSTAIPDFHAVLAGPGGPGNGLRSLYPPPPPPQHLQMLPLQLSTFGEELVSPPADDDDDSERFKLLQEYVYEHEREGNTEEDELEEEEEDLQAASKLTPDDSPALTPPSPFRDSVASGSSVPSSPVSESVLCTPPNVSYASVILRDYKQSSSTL
# Method: as §1, §2
# [1] = system: hyperalgesia in partial sciatic nerve ligation rat; experiment: partial sciatic nerve ligation (PSN) model of neuropathic pain, paw withdrawal method; assay type: in vivo; details: 100 μg intrathecal; for % MPE (0-100) 1 hr / Paw withdrawal thresholds (g; raw data) 1 hr / Raw MPE (%) 1 hr / % MPE (0-100) 3 hrs / Paw withdrawal thresholds (g; raw data) 3 hrs / Raw MPE (%) 3 hrs / % MPE (0-100) 5 hrs / Paw withdrawal thresholds (g; raw data) 5 hrs / Raw MPE (%) 5 hrs / % MPE (0-100) 24 hrs / Paw withdrawal thresholds (g; raw data) 24 hrs / Raw MPE (%) 24 hrs: PSN Sx rat
# Method: Briefly, under gas anesthesia, the skin and muscles of the thigh were reflected to expose the sciatic nerve. About one-third to one-half of the cross-sectional area of the nerve was tightly ligated using a 7-0 nylon suture. The incision was closed in layers (suture for muscle, surgical adhesive for skin). […] Treated rats were assayed at 1, 3, 5, and 24 hr using the paw withdrawal method (L. Randall and J. Selitto, 1957, Arch. Int. Pharmacodynam., 111:409-19). […] The Partial sciatic nerve ligation assay was performed at Eurofins/Product Safety Laboratories (Dayton, N.J.).
# Animals were housed in cages which conform to the size recommendations in the most recent NIH Guide for the Care and Use of Laboratory Animals. […] The animals were fed Purina Rodent Chow #5012. The animals were acclimated to the facility for 7 days prior to the study. A pre-operative baseline paw withdrawal measure was collected for all rats. […] After recovery, a pre-dosing baseline paw withdrawal threshold was collected for all rats. […] Rats were lightly anesthetized and treated with test article or vehicle. Paw withdrawal thresholds were determined at one, three, five, and 24 hours post dosing. […] Briefly, under gas anesthesia, the skin and muscles of the thigh were reflected to expose the sciatic nerve. About one third to one half of the cross-sectional area of the nerve was tightly ligated using a 7-0 nylon suture. The incision was closed in layers (suture for muscle, surgical adhesive for skin). Test article or vehicle was administered by transcutaneous injection (C. Mestre et al., 1994, J. Pharm. Tox. Meth., 32:197-200). Briefly, the rat was lightly anesthetized and placed to flex the lower lumbar vertebrae. After palpating the vertebral processes, a 26 gauge needle was inserted through a vertebral interspace. The presence of a tail flick was considered validation of the needle placement; the solution was then injected. Paw withdrawal thresholds were assessed using a paw pressure device (L. O. Randall & J. J. Selitto, 1957, Arch. Int. Pharmacodyn., 111:409-19). The behavioral endpoint was defined as paw withdrawal. Data was analyzed by two-way analysis of variance (repeated measures) with Bonferroni tests at individual time points. Paw withdrawal threshold raw values were used for the analysis, and each route of administration was analyzed separately. Vehicle-treated groups were used as the statistical comparison groups.
structure (smiles),measurement,setting,value
O=C(Nc1cccc(Cl)c1)c1cc(Cl)ccc1O [Compound 14],pEC50,mGluR5,6.90
same,mGluR1/mGluR5 Ratio,mGluR1,4.15
same,pEC50,mGluR1,6.28
"N#Cc1cccc(NC(=O)c2cc(Cl)ccc2O)c1 [Compound 16, 5-Chloro-N-(3-cyanophenyl)-2-hydroxybenzamide]",pEC50,mGluR5,6.63
same,mGluR1/mGluR5 Ratio,mGluR1,42.55
same,pEC50,mGluR1,< 5.00
O=C(Nc1cccc(F)c1)c1cc(Cl)ccc1O [Compound 17],pEC50,mGluR5,6.86
same,mGluR1/mGluR5 Ratio,mGluR1,4.33
same,pEC50,mGluR1,6.22
"CC(C)(C)c1cccc(NC(=O)c2cc(Cl)ccc2O)c1 [Compound 18, 5-Chloro-N-(3-tert-butylphenyl)-2-hydroxybenzamide]",pEC50,mGluR5,6.62
same,mGluR1/mGluR5 Ratio,mGluR1,1.40
same,pEC50,mGluR1,6.48
Cc1cc(C)cc(NC(=O)c2cc(Cl)ccc2O)c1 [Compound 19],pEC50,mGluR5,6.91
same,mGluR1/mGluR5 Ratio,mGluR1,9.39
same,pEC50,mGluR1,5.94
O=C(Nc1cc(C(F)(F)F)cc(C(F)(F)F)c1)c1cc(Cl)ccc1O [Compound 20],pEC50,mGluR5,7.04
same,mGluR1/mGluR5 Ratio,mGluR1,1.22
same,pEC50,mGluR1,6.95
"CN(C)C(=O)Oc1ccc(Cl)cc1C(=O)Nc1ccc([N+](=O)[O-])cc1Cl [Compound 23, 4-chloro-2-(2-chloro-4-nitrophenylcarbamoyl)phenyl dimethyl carbamate]",pEC50,mGluR5,< 5.00
same,pEC50,mGluR1,< 5.00
COC(=O)[C@@H]1CCCN1C(=O)Oc1ccc(Cl)cc1C(=O)Nc1ccc([N+](=O)[O-])cc1Cl [Compound 25],pEC50,mGluR5,< 5.00
same,pEC50,mGluR1,< 5.00
CC(C)(C)OC(=O)[C@@H]1CCCN1C(=O)Oc1ccc(Cl)cc1C(=O)Nc1ccc([N+](=O)[O-])cc1Cl [Compound 26],pEC50,mGluR5,< 5.00
same,pEC50,mGluR1,< 5.00
O=C(Nc1ccc([N+](=O)[O-])cc1Cl)c1cc(Cl)ccc1OC(=O)N1CCC[C@H]1C(=O)O [Compound 27],pEC50,mGluR5,< 5.00
same,pEC50,mGluR1,< 5.00
"NCC1(CC(=O)O)CCCCC1 [Gabapentin, gabapentin, reference compound]",% MPE (0-100) 1 hr,[1]; group Average (N 6),63.2%
same,Paw withdrawal thresholds (g; raw data) 1 hr,[1]; group Average (N 6),165.0 g
same,Raw MPE (%) 1 hr,[1]; group Average (N 6),77.4%
same,% MPE (0-100) 1 hr,[1]; individual rat,53.9% and 100.0% (3×) and 0.8% and 24.4%
same,Paw withdrawal thresholds (g; raw data) 1 hr,[1]; individual rat,145 g and 250 g and 190 g and 100 g and 120 g and 185 g
same,Raw MPE (%) 1 hr,[1]; individual rat,53.9% and 177.6% and 106.9% and 0.8% and 24.4% and 101.0%
same,% MPE (0-100) 3 hrs,[1]; group Average (N 6),43.5%
same,Paw withdrawal thresholds (g; raw data) 3 hrs,[1]; group Average (N 6),134.2 g
same,Raw MPE (%) 3 hrs,[1]; group Average (N 6),47.7%
same,% MPE (0-100) 3 hrs,[1]; individual rat,0.0% (2×) and 34.6% (2×) and 91.7% and 100.0%
same,Paw withdrawal thresholds (g; raw data) 3 hrs,[1]; individual rat,70 g and 125 g (2×) and 90 g and 165 g and 230 g
same,Raw MPE (%) 3 hrs,[1]; individual rat,−43.8% and 34.6% (2×) and −15.3% and 91.7% and 184.4%
same,% MPE (0-100) 5 hrs,[1]; group Average (N 6),17.4%
same,Paw withdrawal thresholds (g; raw data) 5 hrs,[1]; group Average (N 6),96.7 g
same,Raw MPE (%) 5 hrs,[1]; group Average (N 6),−0.6%
same,% MPE (0-100) 5 hrs,[1]; individual rat,0.0% (3×) and 43.6% and 3.8% and 56.9%
same,Paw withdrawal thresholds (g; raw data) 5 hrs,[1]; individual rat,60 g and 130 g and 85 g and 100 g and 140 g and 65 g
same,Raw MPE (%) 5 hrs,[1]; individual rat,−49.3% and 43.6% and −16.1% and 3.8% and 56.9% and −42.7%
same,% MPE (0-100) 24 hrs,[1]; group Average (N 6),16.4%
same,Paw withdrawal thresholds (g; raw data) 24 hrs,[1]; group Average (N 6),98.3 g
same,Raw MPE (%) 24 hrs,[1]; group Average (N 6),6.7%
same,% MPE (0-100) 24 hrs,[1]; individual rat,0.0% (3×) and 23.3% and 58.7% and 16.2%
same,Paw withdrawal thresholds (g; raw data) 24 hrs,[1]; individual rat,85 g and 110 g and 80 g and 75 g and 135 g and 105 g
same,Raw MPE (%) 24 hrs,[1]; individual rat,−12.1% and 23.3% and −19.2% and −26.3% and 58.7% and 16.2%
same,reversing hyperalgesia,[1]; rat,effective in reversing hyperalgesia
